Laboratory results as given in the supplement of paper PMC11061612.

Key:
Lapatinib = compound: CS(=O)(=O)CCNCc1ccc(-c2ccc3ncnc(Nc4ccc(OCc5cccc(F)c5)c(Cl)c4)c3c2)o1 [Lapatinib]; details: max 10 µM
Method in brief: (§1)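 Cancer cell lines were dosed for 72 hours (final DMSO typically 0.2%) after 24 hours at 37°C and 5% CO2 in 1536-well plates containing 7.5 μl DMEM/F12 or RPMI with 10% FBS. Viability came from CellTiter-Glo 2.0 luminescence, scaled between blank-well and DMSO-well means, and dose responses were fitted to a two-parameter logistic curve with a non-linear mixed effects model. The single-agent IC50 was obtained from this fit.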

AZD8186 = compound: C[C@@H](Nc1cc(F)cc(F)c1)c1cc(C(=O)N(C)C)cc2c(=O)cc(N3CCOCC3)oc12 [AZD8186]; details: max 3 µM
Method in brief: as §1

AZD4320 = compound: CN(CC[C@H](CSC1=CC=CC=C1)NC2=C(C=C(C=C2)S(=O)(=O)NC(=O)C3=CC=C(C=C3)N4CCC(CC4)[C@H](C5=CC=CC=C5C6=CC=C(C=C6)Cl)O)S(=O)(=O)C(F)(F)F)CCO [AZD4320]; details: max 1 µM
Method in brief: as §1

Olaparib = compound: O=C(c1cc(Cc2n[nH]c(=O)c3ccccc23)ccc1F)N1CCN(C(=O)C2CC2)CC1 [Olaparib]; details: max 10 µM
Method in brief: as §1

SN-38 = compound: CCc1c2c(nc3ccc(O)cc13)-c1cc3c(c(=O)n1C2)COC(=O)[C@]3(O)CC [SN-38]; details: max 0.3 µM
Method in brief: as §1

SG3199 = compound: CC1=CN2[C@@H](C1)C=NC3=CC(=C(C=C3C2=O)OC)OCCCCCOC4=C(C=C5C(=C4)N=C[C@@H]6CC(=CN6C5=O)C)OC [SG3199]; details: max 0.001 µM
Method in brief: as §1

Taselisib = compound: Cc1nc(-c2cn3c(n2)-c2ccc(-c4cnn(C(C)(C)C(N)=O)c4)cc2OCC3)n(C(C)C)n1 [Taselisib]; details: max 10 µM
Method in brief: as §1

Trametinib = compound: CC(=O)Nc1cccc(-n2c(=O)n(C3CC3)c(=O)c3c(Nc4ccc(I)cc4F)n(C)c(=O)c(C)c32)c1 [Trametinib]; details: max 1 µM
Method in brief: as §1

Capivasertib = compound: C1CN(CCC1(C(=O)N[C@@H](CCO)C2=CC=C(C=C2)Cl)N)C3=NC=NC4=C3C=CN4 [Capivasertib]; details: max 10 µM
Method in brief: as §1

Savolitinib = compound: C[C@@H](c1ccc2nccn2c1)n1nnc2ncc(-c3cnn(C)c3)nc21 [Savolitinib]; details: max 1 µM
Method in brief: as §1

Gefitinib = compound: COc1cc2ncnc(Nc3ccc(F)c(Cl)c3)c2cc1OCCCN1CCOCC1 [Gefitinib]; details: max 10 µM
Method in brief: as §1

Selumetinib = compound: Cn1cnc2c(F)c(Nc3ccc(Br)cc3Cl)c(C(=O)NOCCO)cc21 [Selumetinib]; details: max 10 µM
Method in brief: as §1

AZD0156 = compound: CN(C)CCCOc1ccc(-c2ccc3ncc4c(c3c2)n(C2CCOCC2)c(=O)n4C)cn1 [AZD0156]; details: max 3 µM
Method in brief: as §1

Doxorubicin = compound: COc1cccc2c1C(=O)c1c(O)c3c(c(O)c1C2=O)C[C@@](O)(C(=O)CO)C[C@@H]3O[C@H]1C[C@H](N)[C@H](O)[C@H](C)O1 [Doxorubicin]; details: max 1 µM
Method in brief: as §1

Dasatinib = compound: CC1=C(C(=CC=C1)Cl)NC(=O)C2=CN=C(S2)NC3=CC(=NC(=N3)C)N4CCN(CC4)CCO [Dasatinib]; details: max 2 µM
Method in brief: as §1

AZD1390 = compound: CC(C)n1c(=O)n(C)c2cnc3cc(F)c(-c4ccc(OCCCN5CCCCC5)nc4)cc3c21 [AZD1390]; details: max 0.3 µM
Method in brief: as §1

Palbociclib = compound: CC(=O)c1c(C)c2cnc(Nc3ccc(N4CCNCC4)cn3)nc2n(C2CCCC2)c1=O [Palbociclib]; details: max 10 µM
Method in brief: as §1

Prexasertib = compound: COc1cccc(OCCCN)c1-c1cc(Nc2cnc(C#N)cn2)n[nH]1 [Prexasertib]; details: max 1 µM
Method in brief: as §1

Crizotinib = compound: C[C@@H](Oc1cc(-c2cnn(C3CCNCC3)c2)cnc1N)c1c(Cl)ccc(F)c1Cl [Crizotinib]; details: max 10 µM
Method in brief: as §1

Venetoclax = compound: CC1(C)CCC(CN2CCN(c3ccc(C(=O)NS(=O)(=O)c4ccc(NCC5CCOCC5)c([N+](=O)[O-])c4)c(Oc4cnc5[nH]ccc5c4)c3)CC2)=C(c2ccc(Cl)cc2)C1 [Venetoclax]; details: max 1 µM
Method in brief: as §1

AZD2811 = compound: CCN(CCO)CCCOc1ccc2c(Nc3cc(CC(=O)Nc4cccc(F)c4)[nH]n3)ncnc2c1 [AZD2811]; details: max 1 µM
Method in brief: as §1

AZD6738 = compound: C[C@@H]1COCCN1C2=NC(=NC(=C2)C3(CC3)[S@](=N)(=O)C)C4=C5C=CNC5=NC=C4 [AZD6738]; details: max 10 µM
Method in brief: as §1

AZD5991 = compound: Cc1c2c(nn1C)CSCc1cc(n(C)n1)CSc1cc(c3ccccc3c1)OCCCc1c(C(=O)O)n(C)c3c-2c(Cl)ccc13 [AZD5991]; details: max 1 µM
Method in brief: as §1

AZD1775 = compound: C=CCn1c(=O)c2cnc(Nc3ccc(N4CCN(C)CC4)cc3)nc2n1-c1cccc(C(C)(C)O)n1 [AZD1775]; details: max 3 µM
Method in brief: as §1

AZD5153 = compound: COc1nnc2ccc(N3CCC(c4ccc(OCCN5CCN(C)C(=O)[C@H]5C)cc4)CC3)nn12 [AZD5153]; details: max 1 µM
Method in brief: as §1

Alisertib = compound: COc1cc(Nc2ncc3c(n2)-c2ccc(Cl)cc2C(c2c(F)cccc2OC)=NC3)ccc1C(=O)O [Alisertib]; details: max 10 µM
Method in brief: as §1

AZD7648 = compound: Cc1cc2ncnn2cc1Nc1ncc2c(n1)n(C1CCOCC1)c(=O)n2C [AZD7648]; details: max 10 µM
Method in brief: as §1

Cell Line | IC50, cell viability 72 h (Lapatinib) [µM] | IC50, cell viability 72 h (AZD8186) [µM] | IC50, cell viability 72 h (AZD4320) [µM] | IC50, cell viability 72 h (Olaparib) [µM] | IC50, cell viability 72 h (SN-38) [µM] | IC50, cell viability 72 h (SG3199) [µM] | IC50, cell viability 72 h (Taselisib) [µM] | IC50, cell viability 72 h (Trametinib) [µM] | IC50, cell viability 72 h (Capivasertib) [µM] | IC50, cell viability 72 h (Savolitinib) [µM] | IC50, cell viability 72 h (Gefitinib) [µM] | IC50, cell viability 72 h (Selumetinib) [µM] | IC50, cell viability 72 h (AZD0156) [µM] | IC50, cell viability 72 h (Doxorubicin) [µM] | IC50, cell viability 72 h (Dasatinib) [µM] | IC50, cell viability 72 h (AZD1390) [µM] | IC50, cell viability 72 h (Palbociclib) [µM] | IC50, cell viability 72 h (Prexasertib) [µM] | IC50, cell viability 72 h (Crizotinib) [µM] | IC50, cell viability 72 h (Venetoclax) [µM] | IC50, cell viability 72 h (AZD2811) [µM] | IC50, cell viability 72 h (AZD6738) [µM] | IC50, cell viability 72 h (AZD5991) [µM] | IC50, cell viability 72 h (AZD1775) [µM] | IC50, cell viability 72 h (AZD5153) [µM] | IC50, cell viability 72 h (Alisertib) [µM] | IC50, cell viability 72 h (AZD7648) [µM]
PL4 (Pancreatic Carcinoma) | > 10 | > 3 | > 1 | > 10 | 0.0435 | > 0.001 | 2.26 | 0.106 | > 10 | > 1 | > 10 | > 10 | > 3 | > 1 | 0.634 | > 0.3 | > 10 | 0.117 | > 10 | > 1 | > 1 | 6.41 | > 1 | 1.36 | 0.969 | 8.07 | > 10
Raji (Burkitt's Lymphoma) | > 10 | > 3 | > 1 | > 10 | 0.0043 | > 0.001 | > 10 | > 1 | > 10 | > 1 | > 10 | > 10 | > 3 | 0.114 | > 2 | > 0.3 | > 10 | 0.0187 | > 10 | > 1 | > 1 | 3.81 | 0.506 | 0.472 | 0.371 | > 10 | > 10
SAT (Head and Neck Carcinoma) | 2.02 | > 3 | > 1 | > 10 | > 0.3 | > 0.001 | 0.16 | 0.0772 | > 10 | > 1 | 2.61 | 4.69 | > 3 | > 1 | 0.204 | > 0.3 | > 10 | 0.826 | > 10 | > 1 | > 1 | > 10 | > 1 | 2.69 | 0.155 | 2.92 | > 10
SNU-C2B (Colorectal Carcinoma) | > 10 | > 3 | > 1 | > 10 | > 0.3 | > 0.001 | 8.21 | > 1 | > 10 | > 1 | > 10 | > 10 | > 3 | > 1 | > 2 | > 0.3 | > 10 | 0.133 | > 10 | > 1 | > 1 | 7.63 | > 1 | 1.12 | 0.788 | > 10 | > 10
SUP-M2 (T-Cell Non-Hodgkin's Lymphoma) | 6.55 | > 3 | 0.805 | 5.4 | 0.00156 | > 0.001 | > 10 | > 1 | > 10 | > 1 | > 10 | > 10 | > 3 | 0.0547 | > 2 | > 0.3 | 6.52 | 0.0165 | 0.475 | > 1 | 0.0226 | 1.01 | 0.117 | 0.316 | 0.0304 | 0.0577 | > 10
SiHa (Cervical Carcinoma) | > 10 | > 3 | > 1 | > 10 | > 0.3 | > 0.001 | > 10 | > 1 | > 10 | > 1 | > 10 | > 10 | > 3 | > 1 | > 2 | > 0.3 | > 10 | > 1 | > 10 | > 1 | > 1 | > 10 | > 1 | > 3 | 0.444 | > 10 | > 10
T47D (Breast Carcinoma) | > 10 | > 3 | > 1 | > 10 | 0.104 | > 0.001 | 0.776 | > 1 | > 10 | > 1 | > 10 | > 10 | > 3 | > 1 | > 2 | > 0.3 | > 10 | > 1 | > 10 | > 1 | > 1 | > 10 | > 1 | > 3 | > 1 | > 10 | > 10
UACC-257 (Melanoma) | > 10 | > 3 | > 1 | > 10 | > 0.3 | > 0.001 | > 10 | 0.0412 | > 10 | > 1 | > 10 | 2.33 | > 3 | > 1 | > 2 | > 0.3 | > 10 | > 1 | > 10 | > 1 | > 1 | > 10 | > 1 | > 3 | > 1 | > 10 | > 10
